In general, EC50 refers to the midpoint of the concentration-response curve.

Data on twelve compounds can be found in patent publication US8822519B2, “Compound with agitation effect on peroxisome proliferator-activated receptor process for its preparation and use thereof” (Zhejiang Hisun Pharmaceutical Co., Ltd., priority 2008, dated 2014).

One experiment addresses T1, PPARδ (Homo sapiens, UniProt Q03181).
T1 construct: expressed in transfected cells; host or cells: HepG2 (human hepatocarcinoma, ATCC)
T1 sequence (Q03181 1-441): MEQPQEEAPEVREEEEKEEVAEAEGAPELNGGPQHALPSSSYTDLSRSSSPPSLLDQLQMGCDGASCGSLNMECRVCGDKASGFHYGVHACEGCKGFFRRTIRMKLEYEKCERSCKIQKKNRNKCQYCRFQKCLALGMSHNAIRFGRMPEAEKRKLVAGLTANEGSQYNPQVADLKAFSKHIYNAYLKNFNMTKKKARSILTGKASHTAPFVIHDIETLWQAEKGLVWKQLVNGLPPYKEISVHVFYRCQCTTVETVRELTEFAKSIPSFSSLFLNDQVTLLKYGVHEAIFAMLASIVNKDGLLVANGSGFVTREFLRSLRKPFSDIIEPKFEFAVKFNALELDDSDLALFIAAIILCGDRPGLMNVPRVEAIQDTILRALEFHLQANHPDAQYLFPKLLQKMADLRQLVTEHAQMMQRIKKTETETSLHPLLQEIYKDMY
T1 sequence (P19793 1-462 partner): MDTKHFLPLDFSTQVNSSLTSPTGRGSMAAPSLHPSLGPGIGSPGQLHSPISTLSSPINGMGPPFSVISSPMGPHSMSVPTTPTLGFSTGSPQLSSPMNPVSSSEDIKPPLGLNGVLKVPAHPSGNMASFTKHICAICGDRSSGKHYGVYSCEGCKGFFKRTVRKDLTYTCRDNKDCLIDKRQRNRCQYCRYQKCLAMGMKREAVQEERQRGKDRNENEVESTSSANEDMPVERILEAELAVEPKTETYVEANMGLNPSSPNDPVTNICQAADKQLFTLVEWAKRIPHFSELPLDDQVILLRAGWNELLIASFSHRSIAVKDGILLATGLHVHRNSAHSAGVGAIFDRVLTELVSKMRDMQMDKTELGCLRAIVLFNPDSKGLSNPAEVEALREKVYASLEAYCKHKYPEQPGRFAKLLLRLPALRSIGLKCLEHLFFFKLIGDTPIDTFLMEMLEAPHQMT
The experiment can be described thus: In vitro screening of nuclear receptor agonist: luciferase reporter gene assay in HepG2 cells. The class given is cell-based. The conditions noted are these: RXR/PPARδ luciferase reporter gene, 24 h treatment. The source says:
Using a reporter gene protocol, the screening model for screening a nuclear receptor agonist in a living cell is designed on a basis of the principal that an activated nuclear receptor can activate transcription of its downstream gene. A reporter gene plasmid is constructed, in which the DNA binding sequence for the nuclear receptor (NRE) is inserted upstream of the luciferase gene, so that the expression of the luciferase gene is placed under the control of the nuclear receptor. Then, the reporter gene plasmid and the nuclear receptor are simultaneously transferred into a cell, and the nuclear receptor is activated when the nuclear receptor agonist is present in the cell culture medium. Then the activated receptor is able to induce the expression of the luciferase gene, while the amount of the luciferase can be determined through its luminous substrate. In this way, the intensity of activation by the compound on the nuclear receptor could be known by observing the luminescence intensity.
The specific operation is described as follows:
The experiment reagents: the compounds to be tested (20 mM, in DMSO, stored at −80° C.).
The hepatocarcinoma cell HepG2 (from ATCC, American Type Culture Collection) was cultured in DMEM medium supplemented with 10% heat-inactivated fetal bovine serum (FBS, Invitogen, Grand Island, N.Y., USA) in a T-75 culture bottle (Greiner, Germany) in a incubator at 37° C., the relative humidity of 100%, and 5% CO2. When the cell culture in the culture bottle reached 80-90% confluency, it was digested with 0.25% Trypsin (with EDTA) for 3 min and inoculated into a 96-well cell culture plate at an inoculating density of 2000 cells/100 μl/well.
In the next day, when the cells in the 96-well culture plate grew up to 50-80% confluency, cell transfection was performed. The cell co-transfection system comprised the FuGene6 transfection agent (Roche Molecular Biochemicals, Indianapolis, Ind., U.S.A.) and 60 ng DNA (long of hRXR, 10 ng of pCMV βGal, 10 ng of the nuclear receptor expression plasmid RXR/PPARδ, 30 ng of GFP fluorescence reporter gene plasmid, respectively).
The cell culture medium was discarded immediately at 24 hours post-transfection and replaced by 200 μl of a fresh DMEM medium containing the medicament to be tested (with 10% FBS treated by activated carbon).
24 h after treatment with the medicament, the cells were lysed with a lysis solution (Cell Culture Lysis buffer, Promega) and centrifuged, and the supernatant was collected. The supernatant was treated with a fluorescence detection kit (Promega) and counted by a fluorescence meter (Ascent Fluoroskan FL reader, Thermo Labsystems, Finland), and the relative intensity of the luciferase was determined. For assaying the β-galactosidase activity used in the experiment as the inner reference (the inner reference calibrating for the transfection efficiency), 50 μl of the supernatant was transferred into a fresh microplate and treated with the Promega kit and read at a wavelength of 405 nm from a microplate reader (Bio-tech Instruments Inc., Winooski, Vt., USA) (Sauerberg, P.; Olsen, G. S.; Jeppesen, L.; Mogensen, J. P. et al., J. Med. Chem., 2007, 50, 1495-1503).
The median effective concentration (EC50) of a sample is a concentration at which the sample has 50% pharmacological effect. This value is one of the important parameters for evaluating pharmacological effects of a compound. In the present screening process, the EC50 of a sample was calculated according to the activation of the receptor by the sample at six different concentrations.
(A reporter such as luciferase makes a cellular process visible.)

Experiment [1] concerns high fat fodder obese C57BL/6J mice. The experiment can be described thus: High fat fodder obese mice: body weight and food intake. The class given is in vivo. From the text:
3 week-old male C57BL/6J mice were chosen as experiment animals, 15 of which were randomly selected to feed with a standard fodder, and the remains were allowed to feed with a high fat fodder, with each of the mice being marked by ear-cutting. The body weights and fodder intake of the mice were weighed every week. […] After the administration of the inventive compounds for four weeks, the effects of the medicaments on the levels of blood lipid and blood glucose, body weight, and fodder intake in the animals were observed, while a glucose tolerance test was performed to investigate the effects of the medicaments on the glucose tolerance in the animals.

The test system is the same in experiment [2]. The experiment in a line: High fat fodder obese mice: levels of blood lipid and blood glucose. The format is in vivo. More on the design: HDL / GLU / TC / TG: unit not given here. The conditions noted are these: mean ± s, n 5. The source says: 3 week-old male C57BL/6J mice were chosen as experiment animals, 15 of which were randomly selected to feed with a standard fodder, and the remains were allowed to feed with a high fat fodder, with each of the mice being marked by ear-cutting. The body weights and fodder intake of the mice were weighed every week. […] […], the effects of the medicaments on the levels of blood lipid and blood glucose, body weight, and fodder intake in the animals were observed, while a glucose tolerance test was performed to investigate the effects of the medicaments on the glucose tolerance in the animals.

Setting [3] is: 2 weeks administration, 10 mg/kg.
Where [4] appears, read: 2 weeks administration, 30 mg/kg.
[5] abbreviates: 4 weeks administration, 10 mg/kg.
Setting [6] is: 4 weeks administration, 30 mg/kg.

For `Cc1cc(OC(c2ccccc2)c2nn(-c3ccc(C(F)(F)F)cc3)c(=O)n2C)ccc1SCC(=O)O` (stereo not shown) [Compound A-2, 2-(2-methyl-4-(1-(3-(4-methyl-5-oxo-1-(4-trifluoromethyl-phenyl)-4,5-dihydrogen-1H-1,2,4-triazolyl))-benzyloxy)-phenylthio)-acetic acid], the response on PPARδ was half-maximal at 100 nM (EC50).
Same read-out and setting: to `Cc1cc(SC(c2ccccc2)c2nn(-c3ccc(C(F)(F)F)cc3)c(=O)n2C)ccc1OCC(=O)O` (stereo not shown) [Compound A-4, 2-(2-methyl-4-(1-(3-(4-methyl-5-oxo-1-(4-trifluoromethyl-phenyl)-4,5-dihydrogen-1H-1,2,4-triazolyl))-benzylthio)-phenoxy)-acetic acid] belongs 10 nM; to `CCc1cc(OC(c2ccccc2)c2nn(-c3ccc(C(F)(F)F)cc3)c(=O)n2C)ccc1OCC(=O)O` (stereo not shown) [Compound A-5, 2-(2-ethyl-4-(1-(3-(4-methyl-5-oxo-1-(4-trifluoromethyl-phenyl)-4,5-dihydrogen-1H-1,2,4-triazolyl))-benzyloxy)-phenoxy)-acetic acid], 340 nM; to `Cc1cc(OCC(=O)O)ccc1OC(c1ccccc1)c1nn(-c2ccc(C(F)(F)F)cc2)c(=O)n1C` (stereo not shown) [Compound A-6, 2-(3-methyl-4-(1-(3-(4-methyl-5-oxo-1-(4-trifluoromethyl-phenyl)-4,5-dihydrogen-1H-1,2,4-triazolyl))-benzyloxy)-phenoxy)-acetic acid], 2090 nM.
Still for that read-out and setting: to `Cc1cc(OCC(=O)O)ccc1SC(c1ccccc1)c1nn(-c2ccc(C(F)(F)F)cc2)c(=O)n1C` (stereo not shown) [Compound A-7, 2-(3-methyl-4-(1-(3-(4-methyl-5-oxo-1-(4-trifluoromethyl-phenyl)-4,5-dihydrogen-1H-1,2,4-triazolyl))-benzylthio)-phenoxy)-acetic acid] belongs 380 nM; to `Cc1cc(SCc2nn(-c3ccc(C(F)(F)F)cc3)c(=O)n2C)ccc1OCC(=O)O` [Compound A-8, 2-(2-methyl-4-(3-(4-methyl-5-oxo-1-(4-trifluoromethyl-phenyl)-4,5-dihydrogen-1H-1,2,4-triazolyl)-methylthio)-phenoxy)-acetic acid], 3020 nM.
Still for that read-out and setting: to `Cc1cc(OCc2nn(-c3ccc(C(F)(F)F)cc3)c(=O)n2C)ccc1OCC(=O)O` [Compound A-9, 2-(2-methyl-4-(3-(4-methyl-5-oxo-1-(4-trifluoromethyl-phenyl)-4,5-dihydrogen-1H-1,2,4-triazolyl)-methoxy)-phenoxy)-acetic acid] belongs 6610 nM; to `Cc1cc(SC(c2ccccc2)c2nn(-c3ccc(C(F)(F)F)cc3)c(=O)n2C)c(C)cc1OCC(=O)O` (stereo not shown) [Compound A-10, 2-(2,5-dimethyl-4-(1-(3-(4-methyl-5-oxo-1-(4-trifluoromethyl-phenyl)-4,5-dihydrogen-1H-1,2,4-triazolyl))-benzylthio)-phenoxy)-acetic acid], 100 nM; to `Cc1cc(SCC(=O)O)ccc1OCc1nn(-c2ccc(C(F)(F)F)cc2)c(=O)n1C` [Compound A-12, 2-(3-methyl-4-(3-(4-methyl-5-oxo-1-(4-trifluoromethyl-phenyl)-4,5-dihydrogen-1H-1,2,4-triazolyl)-methoxy)-phenylthio)-acetic acid], 650 nM.
In turn, `Cc1cc(SC(c2ccccc2)c2nn(-c3ccc(C(F)(F)F)cc3)c(=O)n2C)ccc1OC(C)C(=O)O` (stereo not shown) [Compound A-13, 2-methyl-2-(2-methyl-4-(1-(3-(4-methyl-5-oxo-1-(4-trifluoromethyl-phenyl)-4,5-dihydrogen-1H-1,2,4-triazolyl))-benzylthio)-phenoxy)-acetic acid] came in with an EC50 at PPARδ of 20 nM.
Same read-out and setting: in the case of `CCc1cc(SC(c2ccccc2)c2nn(-c3ccc(C(F)(F)F)cc3)c(=O)n2C)ccc1OCC(=O)O` (stereo not shown) [Compound A-14, 2-(2-ethyl-4-(1-(3-(4-methyl-5-oxo-1-(4-trifluoromethyl-phenyl)-4,5-dihydrogen-1H-1,2,4-triazolyl))-benzylthio)-phenoxy)-acetic acid] it was under 1 nM.
Take `CCCCCCCCCCC[C@@H](C[C@@H]1OC(=O)[C@H]1CCCCCC)OC(=O)[C@H](CC(C)C)NC=O` [Orlistat, reference compound]: the Food intake in experiment [1] (column 1, 10 mg/kg) is on record as 5.88 g; in experiment [1] (column 1, 30 mg/kg), 6.04 g; in experiment [1] (column 2, 10 mg/kg), 5.42 g; in experiment [1] (column 2, 30 mg/kg) it was 4.66 g; in experiment [1] (column 3, 10 mg/kg) it was 6.7 g; in experiment [1] (column 3, 30 mg/kg) it was 5.52 g. Besides, the Food intake in experiment [1] (column 4, 10 mg/kg) amounted to 6.64 g; in experiment [1] (column 4, 30 mg/kg), 7.78 g; in experiment [1] (column 5, 10 mg/kg) it was 6.4 g; in experiment [1] (column 5, 30 mg/kg) it was 7.92 g. Moreover, the GLU in experiment [2] (setting [3]) came out at 11.11 ± 1.08; in experiment [2] (setting [4]), 8.81 ± 2.16; in experiment [2] (setting [5]), 11.05 ± 1.09; in experiment [2] (setting [6]), 9.84 ± 1.83. Besides, the HDL in experiment [2] (setting [3]) was determined as 3.29 ± 0.27; in experiment [2] (setting [4]), 2.72 ± 0.3; in experiment [2] (setting [5]) it was 2.63 ± 1.27; in experiment [2] (setting [6]) it was 2.79 ± 0.35. Also, the TC is reported as 3.81 ± 2.56 in experiment [2] (setting [3]), 3.89 ± 0.44 in experiment [2] (setting [4]), 4.24 ± 0.33 in experiment [2] (setting [5]) and 3.48 ± 0.54 in experiment [2] (setting [6]). Besides, the TG in experiment [2] (setting [3]) is reported as 0.36 ± 0.09; in experiment [2] (setting [4]), 0.45 ± 0.09; in experiment [2] (setting [5]), 0.28 ± 0.03; in experiment [2] (setting [6]), 0.41 ± 0.04.
